Laboratory results taken from patent US20110060010A1, “SALTS OF 3-(4-AMINO-1-OXO-1,3-DIHYDRO-ISOINDOL-2-YL)PIPERIDINE-2,6-DIONE AND DERIVATIVES THEREOF, OR POLYMORPHS OF SALTS, PROCESS FOR PREPARING SAME AND USE THEREOF” (TIANJIN HEMAY BIO-TECH CO., LTD, priority 2008, published 2011).
Converted amounts (≈) assume the structure as drawn. Where two headings read alike, the source gives them in different places.

Columns and labels:
[1] = physchem
Description: (§1) The sample in each example was scanned with UV spectroscopy in the wavelength range of 190-900 nm. The maximum absorbance was set to 2. All the samples to be determined have the same absorption peak at 304 nm. Although there are other absorption peaks in the range of 205-190 nm, the peak shapes are slightly different and the maximum absorption wavelengths thereof are different. Therefore, the fixed wavelength was determined to be 304 nm in the concentration versus absorbance determination.
(§2) Therefore, this compound was chosen to plot the concentration versus absorbance standard curve.
(§3) To a 100 mL volumetric flask were added the sample in Example 7 (279.26 mg) and distilled water. The volume was determined at 100 ml with distilled water. The concentration of the solution is 2.793 mg/mL. To a 50 mL volumetric flask was added 1 mL, 2 mL, 3 mL and 5 mL of the above solution, respectively. The volume was determined at 50 ml with distilled water. The concentrations of these solutions are 0.056 mg/mL, 0.112 mg/mL, 0.167 mg/mL and 0.279 mg/mL, respectively.
(§4) A small amount of the sample was used to prepare a 5 mL saturated solution. The solution was kept in a constant temperature water bath for 1 hour at 25° C. The supernatant was sampled and diluted to appropriate times according to the range of the standard curve. The concentration was determined by ultraviolet spectrophotometry, and the determined reading was multiplied by the dilution times to obtain the solubility of the sample to be determined.

[2] = 15° C.
Description: as §1, §2, §3, §4

[3] = Stability of aqueous solution at room temperature; type: physicochemical; details: 17 mg dissolved in 10 mL of deionized water, kept at room temperature for 12 hours
Description: 17 mg of 3-(4-amino-1-oxo-1,3-dihydro-isoindol-2-yl)piperidine-2,6-dione bisulfate tetrahydrate (equivalent to 10 mg of 3-(4-amino-1-oxo-1,3-dihydro-isoindol-2-yl)piperidine-2,6-dione) was dissolved in 10 mL of deionized water and kept at room temperature for 12 hours. The content is higher than 98% of labeled amount.

[4] = water, 15 °C, thermodynamic from solid

In the case of Nc1cccc2c1CN(C1CCC(=O)NC1=O)C2=O (stereo not drawn) [Compound (II), in which Y represents H, 3-(4-amino-1-oxo-1,3-dihydro-isoindol-2-yl)piperidine-2,6-dione], the solubility [1, 4] is reported as 0.29 mg/mL (≈ 1120 µM).
For Nc1cccc2c1CN(C1CCC(=O)NC1=O)C2=O.O=S(=O)(O)c1cccc2ccccc12 (stereo not drawn) [Example 4], the solubility ([2]; in water) was 5.60 mg/mL.
For Nc1cccc2c1CN(C1CCC(=O)NC1=O)C2=O.O.O.O.O.O=S(=O)(O)O (stereo not drawn) [Example 7, 3-(4-amino-1-oxo-1,3-dihydro-isoindol-2-yl)piperidine-2,6-dione bisulfate tetrahydrate], the solubility at 1 h ([1]; 15 °C, water, thermodynamic from solid) was > 1000 mg/mL, the solubility ([1]; water, thermodynamic from solid) was > 1000 mg/mL and the “content (of labeled amount)” value [3] was “higher than 98 % of labeled amount”.
Compound Nc1cccc2c1CN(C1CCC(=O)NC1=O)C2=O.O=[N+]([O-])O (stereo not drawn) [Example 10] has a Water-solubility [2] of 3.68 mg/mL.
In the case of Cl.Nc1cccc2c1CN(C1CCC(=O)NC1=O)C2=O (stereo not drawn) [Example 11], the Water-solubility [2] is reported as 1.23 mg/mL.
For Nc1cccc2c1CN(C1CCC(=O)NC1=O)C2=O (stereo not drawn) [Example 12, 3-(4-amino-1-oxo-1,3-dihydro-isoindol-2-yl)piperidine-2,6-dione], the solubility at 1 h [1, 4] was 0.57 mg/mL (≈ 2200 µM).
Work on Br.Nc1cccc2c1CN(C1CCC(=O)NC1=O)C2=O (stereo not drawn) [Example 15] yielded a Water-solubility [2] of 5.5 mg/mL.
